Blank lines part the entries; values can stand above or below the compound they belong to.
Tests used:
ALDH1A3 [1] = biological target: T1, ALDH1A3 (Homo sapiens, UniProt P47895); experiment: dehydrogenase activity with hexanal, […] ADP (remaining activity); format: biochemical; design: His6-tagged, pET-30 Xa/LIC; details: read-out: % remaining activity at 0.5 mM
T1 sequence (P47895 2-512): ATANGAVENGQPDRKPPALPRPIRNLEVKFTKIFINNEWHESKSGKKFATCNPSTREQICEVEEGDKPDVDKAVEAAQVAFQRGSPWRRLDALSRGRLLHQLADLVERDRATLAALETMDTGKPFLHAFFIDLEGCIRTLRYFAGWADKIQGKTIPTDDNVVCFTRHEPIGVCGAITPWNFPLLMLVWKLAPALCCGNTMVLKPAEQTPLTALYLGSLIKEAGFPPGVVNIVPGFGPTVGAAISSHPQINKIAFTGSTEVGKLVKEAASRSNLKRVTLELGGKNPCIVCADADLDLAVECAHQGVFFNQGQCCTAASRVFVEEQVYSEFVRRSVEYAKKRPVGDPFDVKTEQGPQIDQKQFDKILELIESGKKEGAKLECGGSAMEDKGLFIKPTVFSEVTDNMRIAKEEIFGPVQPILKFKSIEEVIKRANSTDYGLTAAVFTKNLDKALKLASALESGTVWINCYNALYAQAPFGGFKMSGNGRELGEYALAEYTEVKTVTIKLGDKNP

ALDH1A3 [2] = biological target: T1, ALDH1A3; experiment: X-ray crystal structure ([…] Å); Km from enzyme kinetics without Mg2+; format: biochemical; design: His6-tagged, pET-30 Xa/LIC
ALDH1A3 [3] = biological target: T1, ALDH1A3; experiment: biochemical
ALDH1A1 = biological target: T2, ALDH1A1 (Homo sapiens, UniProt P00352); experiment: fluorimetric dehydrogenase assay with hexanal, […] ATP; format: biochemical; details: read-out: % remaining activity at 2 mM
T2 construct: His6-tagged, pET-30 Xa/LIC
T2 sequence (P00352 2-501): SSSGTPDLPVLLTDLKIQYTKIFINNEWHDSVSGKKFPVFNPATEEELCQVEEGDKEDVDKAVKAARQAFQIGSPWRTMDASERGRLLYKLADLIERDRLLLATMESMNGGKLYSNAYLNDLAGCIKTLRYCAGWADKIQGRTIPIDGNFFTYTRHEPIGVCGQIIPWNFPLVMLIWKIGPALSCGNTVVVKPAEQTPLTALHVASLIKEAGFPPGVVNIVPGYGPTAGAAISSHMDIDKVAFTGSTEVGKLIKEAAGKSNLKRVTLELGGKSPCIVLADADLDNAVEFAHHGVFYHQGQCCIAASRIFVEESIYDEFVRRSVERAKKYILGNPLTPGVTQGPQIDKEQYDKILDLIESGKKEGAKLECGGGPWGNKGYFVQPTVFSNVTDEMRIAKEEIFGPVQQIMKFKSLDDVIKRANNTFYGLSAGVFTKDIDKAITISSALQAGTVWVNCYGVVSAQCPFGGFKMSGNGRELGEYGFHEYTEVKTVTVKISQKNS

ALDH1A2 = biological target: T3, ALDH1A2 (Homo sapiens, UniProt O94788); experiment: as above; format: biochemical; details: read-out: % remaining activity at 2 mM
T3 construct: His6-tagged, pET-30 Xa/LIC
T3 sequence (O94788 1-518): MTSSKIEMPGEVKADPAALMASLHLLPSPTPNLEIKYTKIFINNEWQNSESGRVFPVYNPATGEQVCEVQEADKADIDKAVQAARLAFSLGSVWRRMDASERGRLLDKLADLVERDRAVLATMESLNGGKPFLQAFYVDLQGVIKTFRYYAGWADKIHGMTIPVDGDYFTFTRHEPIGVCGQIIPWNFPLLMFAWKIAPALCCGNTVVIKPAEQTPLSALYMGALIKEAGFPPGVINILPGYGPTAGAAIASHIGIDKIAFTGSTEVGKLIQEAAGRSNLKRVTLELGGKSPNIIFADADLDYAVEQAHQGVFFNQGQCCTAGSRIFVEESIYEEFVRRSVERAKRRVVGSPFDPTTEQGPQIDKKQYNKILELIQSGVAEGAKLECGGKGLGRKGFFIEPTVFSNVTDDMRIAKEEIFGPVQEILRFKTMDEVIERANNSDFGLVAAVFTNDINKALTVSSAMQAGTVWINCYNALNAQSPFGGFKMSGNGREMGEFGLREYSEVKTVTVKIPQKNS

ALDH3A1 = biological target: T4, ALDH3A1 (Homo sapiens, UniProt P30838); experiment: as above; format: biochemical; details: read-out: % remaining activity at 2 mM
T4 construct: His6-tagged, pET-30 Xa/LIC
T4 sequence (P30838 2-453): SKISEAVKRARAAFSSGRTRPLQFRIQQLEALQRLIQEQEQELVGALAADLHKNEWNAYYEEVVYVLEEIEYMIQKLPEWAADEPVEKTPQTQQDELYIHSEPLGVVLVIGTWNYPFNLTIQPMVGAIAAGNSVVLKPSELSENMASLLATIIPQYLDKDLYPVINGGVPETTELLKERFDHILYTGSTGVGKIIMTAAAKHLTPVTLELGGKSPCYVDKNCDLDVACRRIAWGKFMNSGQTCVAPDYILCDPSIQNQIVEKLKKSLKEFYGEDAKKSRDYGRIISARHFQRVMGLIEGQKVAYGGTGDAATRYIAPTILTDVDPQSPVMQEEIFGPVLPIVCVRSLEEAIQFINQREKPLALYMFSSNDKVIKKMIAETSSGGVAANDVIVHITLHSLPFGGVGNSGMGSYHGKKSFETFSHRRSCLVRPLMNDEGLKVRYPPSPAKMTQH

remaining activity at 500 µM (ALDH1A3 [1]): 56 ± 4%
SMILES: Nc1ncnc2c1ncn2[C@@H]1O[C@H](COP(=O)(O)OP(=O)(O)O)[C@@H](O)[C@H]1O [ADP]

Km (ALDH1A3 [2]): 24 ± 2 µM
SMILES: NC(=O)c1ccc[n+]([C@@H]2O[C@H](COP(=O)([O-])OP(=O)(O)OC[C@H]3O[C@@H](n4cnc5c(N)ncnc54)[C@H](O)[C@@H]3O)[C@@H](O)[C@H]2O)c1 [NAD^+]

SMILES: Nc1ncnc2c1ncn2[C@@H]1O[C@H](CO[P@@](=O)(O)O[P@](=O)(O)OP(=O)(O)O)[C@@H](O)[C@H]1O [ATP]
Ki (ALDH1A3 [3]): 480 ± 80 µM | remaining activity at 2000 µM (ALDH1A1): 43 ± 1% | remaining activity at 2000 µM (ALDH1A2): 68 ± 2% | remaining activity at 2000 µM (ALDH3A1): 25 ± 1%
